In publication PMC7995547, “ω‐Imidazolyl‐alkyl derivatives as new preclinical drug candidates for treating non‐alcoholic steatohepatitis” (Physiological Reports, 2021):

Key:
Format in all cases: in vivo, Wistar rats
[1] = test system: HFD‐induced NASH rat model (liver); assay: Area of connective tissue in the liver (Mallory‐Azan staining), NASH rat model; conditions: compound overall
Description: (§1) Studies were done using Wistar rats of female sex by the Institute of Pharmacology and Biochemistry at Minsk. The animals were 80–90 days old and weighed 180–200 g. They had free access to a liquid Lieber‐DeCarli (LDC) diet (Lieber et al., 2004) and were housed under standard conditions meaning a 12‐h light/dark cycle at 22 ± 2°C and 55 ± 5% humidity.
(§2) Group 1 was designated as the first control group; it was fed a normal standard solid diet. Group 2, as the second control group, was fed a standard amount of fat as a part of the liquid “physiological,” non‐high fat LDC diet. All other groups received the liquid ‘disease‐causing’ LDC diet (Table 2), including a high content of unsaturated fatty acids.
(§3) Both LDC diets were in a liquid form as produced by ssniff‐Spezialdiäten GmbH, Soest (Germany). The feed was provided over the entire experimental period of 16 weeks; however, the corresponding experimental substances were only administered in the last four weeks (Figure 3).
(§4) The experimental substances I‐ol, I‐an, and UDCA were dissolved in a 0.8% aqueous HPMC gel to obtain the following concentrations: (1) I‐ol at 0.4, 4, and 40 mg/kg body weight (b.w.), (2) I‐an at 0.4, 4, and 40 mg/kg b.w., and (3) UDCA at 40 mg/kg b.w. The Group‐2 and −3 rats received only HPMC as placebo. Each test encompassed 6–8 rats that were put up in a separate cage. The rats were fed ad libitum, and their intake per cage was controlled daily. In order to ensure an exact daily reproducible dosage, the experimental substances or only HPMC was administered intragastrically via oral gavage. Basically, the drug therapy of a chronic disease is the more efficient the higher the adherence of the affected patients. This is generally higher with peroral administration than with any other form of application. At the end of the experiment, the animals were sacrificed under fasting conditions, by aorta dissection and exsanguination, after anesthetizing with an intraperitoneal injection of 5% pentobarbital solution.
Liver tissue sections were subject to the Mallory‐Azan (Heidenhain Azan) staining method for visualizing the connective tissues. This method was a modification of the original Mallory staining protocol, wherein azocarmin with a mixture of aniline blue and orange G was used. In this method, the collagen tissue and basophilic granules turn blue, the muscle tissue and acidophilic granules turn orange to red, and the cell nuclei and cytoplasm turn red. Elastic fibers remain unstained; however, they might turn yellow or pink. The proportion of positively stained liver tissue to the total area of the histological slide was determined quantitatively.

[2] = test system: HFD‐induced NASH rat model (serum); assay: Liver enzyme activities and bilirubin in serum, NASH rat model
Description: as §1, §2, §3, §4
(§5) The activities of the liver enzymes aspartate aminotransferase (AST), alanine aminotransferase (ALT), alkaline phosphatase (AP), and γ‐glutamyl transferase (γ‐GT) as well as bilirubin and triglyceride levels in the serum were determined as described by the instructions of BIO‐LA‐tests kit (Erba Lachema, Brno, Czech Republic).

[3] = test system: HFD‐induced NASH rat model (liver and serum); assay: End products of fat metabolism (liver and serum lipids), NASH rat model; conditions: UDCA 40 mg/kg b.w.
Description: as §1, §2, §3, §4, §5
Extraction of lipids was performed using a solvent composed of chloroform and methanol (2:1 v/v). Thin‐layer chromatography (TLC) was used to separate off neutral lipids and phospholipids. Silicagel G 60 plates (0.25 mm thick) were used. The lipids were separated by ascending chromatography in a system composed of hexane:diethylic ether:glacial acetic acid (73:25:2; v/v/v). They were visualized by iodine vapor and the spots corresponding to triglycerides and cholesterol were scraped off and eluted with methanol for spectrophotometric evaluation. Triglyceride and cholesterol levels were determined using the BIO‐LA‐test kit (Erba Lachema, Brno, Czech Republic). Phospholipid concentration was determined by measuring the levels of phosphomolybdate using an inorganic phosphate reagent containing molybdate (Findlay & Evans, 1987). VLDL level was determined by using the manganese precipitation method (Burstein & Scholnick, 1973) after partial modification (Hirano et al., 2003).

[4] = test system: HFD‐induced NASH rat model (liver); assay: Liver histopathology, semi‐quantitative evaluation, NASH rat model; parameters: key to Steatosis score / Balooning score: 0, none; 1, ≤25%; 2, 26–50%; 3, ≥51–75% of liver parenchyma
Description: as §1, §2, §3, §4
Pieces of liver tissue measuring 1 × 2 × 0.5 mm were chosen randomly and fixed for a week in the mixture of 1% formaldehyde and 1% paraformaldehyde in Sorensen's phosphate buffer (pH 7.4) (Morphisto GmbH, Frankfurt/Main). After this the pieces were kept in 2.5% glutaraldehyde in same buffer, rinsed and then post‐fixed in 1% solution of osmium tetroxide on the Sorensen's phosphate buffer (pH 7.4). After fixation, the liver samples were dehydrated and embedded in the pre‐polymerized mixture of methyl methacrylate and butyl methacrylate (1:4, v/v) containing 2,4‐dichlorbenzoyl peroxide as a catalyst.
[…] A semi‐quantitative evaluation of the sections was performed according to the procedure described by Koppe et al. (Koppe et al., 2004).

[5] = test system: HFD‐induced NASH rat model (serum); assay: Adipocytokines and glucose metabolism in serum, NASH rat model
Description: as §1, §2, §3, §4
The concentrations of adiponectin and TNFα were measured using ELISA kits sold by BioCat GmbH (Heidelberg, Germany), whereas the one for determining leptin level was procured from BioVendor Laboratory Medicine Inc. (Brno, Czech Republic). Insulin concentration was determined using the radioimmunoassay kit RIO‐insulin‐PG‐J125 (IBOCH, Minsk, Belarus). Serum glucose level was determined based on the “Accu‐Check Active blood glucose” monitoring method developed by Roche‐Diagnostics.

[6] = test system: HFD‐induced NASH rat model (liver); assay: Oxidative stress (ROS status) in the liver, HFD-induced NASH rat model; conditions: liver
Description: as §1
The rats were divided into 10 groups based on the diets and experimental substances administered (Figure 2).
as §2, §3, §4
The formation of ROS in the rat liver was measured using NADPH‐induced chemiluminescence as described by Müller‐Peddinghaus et al. (Muller‐Peddinghaus, 1987). Luminol and lucigenin were used for detecting the superoxide radical anion (SRA) and hydrogen peroxide. Liver pieces were homogenized in 0.1 M sodium phosphate buffer, pH 7.4; the homogenates were centrifuged at 9,000 × g at 0°C; and aliquots were used for subsequent measurements. Reduced glutathione (GSH) was estimated via a modified Ellman's method (Ellman, 1959), in which 0.2 mL of the liver homogenate supernatant was added to 1.6 mL of an EDTA/sodium phosphoric acid solution and the absorbance noted at 412 nm against blank values. GSH solution produced immediately before application served as the standard. The end products of the lipid peroxidation reaction were equivalent to the thiobarbituric acid‐reacting substances (TBARS), and their concentration was measured according to the method described by Buege et al. (Buege & Aust, 1978). Enzymatic activities of microsomal glutathione reductase (GR) and cytosolic glutathione peroxidase (GPx) were measured according to the methodology of Buko et al. (Buko et al., 2002). Catalase activity was determined according to the spectroscopic methodology described by Beers et al. (Beers & Sizer, 1952) using hydrogen peroxide as the substrate.

[7] = serum, average over doses (I‐ol, I‐an), UDCA 40 mg/kg b.w.
[8] = serum, number: highest concentration (40 mg/kg b.w.), words: compound overall
[9] = average over doses (I‐ol, I‐an)
[10] = 40.0 mg/kg b.w. + HFD, H.E.‐stained liver slices
[11] = average over doses (I‐ol, I‐an), UDCA 40 mg/kg b.w.

Structure (SMILES): C[C@H](CCC(=O)O)[C@H]1CC[C@H]2[C@@H]3[C@@H](O)C[C@@H]4C[C@H](O)CC[C@]4(C)[C@H]3CC[C@]12C [UDCA, ursodeoxycholic acid, reference compound]
- Effect on area of connective tissue in the liver (in words) [1]: no therapeutic effect
- Decrease in serum bilirubin level compared to disease group ([2]; average over doses, UDCA 40 mg/kg b.w.): no therapeutic effect
- Decrease in γ‐GT enzymatic activity compared to disease group [2, 7]: 30%
- Reduction of the effect of HFD on γ‐GT activity [2, 7]: 73%
- Decrease in ALT enzymatic activity compared to disease group ([2]; serum, highest concentrations (40 mg/kg b.w.)): 15%
- Reduction of the effect of HFD on ALT activity ([2]; serum, highest concentrations (40 mg/kg b.w.), b87: dose not stated): 50%
- Decrease in AP enzymatic activity compared to disease group [2, 8]: no therapeutic effect
- Decrease in AST enzymatic activity compared to disease group [2, 8]: no therapeutic effect
- Decrease in liver triglyceride levels compared to disease group [3, 9]: 17%
- Reduction of the effect of HFD on liver triglyceride levels [3, 9]: 39%
- Decrease in liver phospholipid levels compared to disease group ([3]; average over doses): no therapeutic effect
- Decrease in serum LDL cholesterol ([3]; average over doses): non‐significant trend toward lowering the serum LDL level
- Decrease in serum triglyceride levels compared to disease group ([3]; average over doses): no therapeutic effect
- Balooning score [4, 10]: 0
- Inflammation score [4, 10]: 1 (1, <5 signs of inflammation)
- Steatosis score [4, 10]: 0–1
- Effect on liver histology (in words) ([4]; animals with NASH (HFD)): improved liver histology
- Decrease in serum glucose level ([5]; 40 mg/kg b.w.): 26%
- Reversal of the effect of HFD on serum glucose level ([5]; 40 mg/kg b.w.): 100%
- Reduction of the effect of HFD on serum TNF‐α level ([5]; average over doses (I‐ol), UDCA 40 mg/kg b.w.): 75%
- Decrease in serum TNF‐α level compared to disease group [5, 11]: 56%
- Decrease in serum leptin compared to disease group [5, 11]: 21%
- Increase in serum adiponectin compared to disease group [5, 11]: 42%
- Reduction of the effect of HFD on serum adiponectin ([5]; average over doses (I‐ol, I‐an), UDCA 40 mg/kg b.w. (elevated the concentration by)): 52%
- Reduction of the effect of HFD on serum leptin ([5]; average over doses (I‐ol, I‐an), UDCA 40 mg/kg b.w. (reduced leptin concentration)): 72%
- Increase in GR activity compared to disease group ([6]; I‐ol, I‐an groups overall, UDCA 40 mg/kg b.w.): 24%
- Decrease in SRA level compared to disease group ([6]; average over 0.4, 4, 40 mg/kg b.w. (I‐ol, I‐an), UDCA 40 mg/kg b.w., oral gavage daily, last 4 of 16 weeks HFD): 30%
- Decrease in TBARS level compared to disease group [6, 11]: 27%
- Reduction of the effect of HFD on the SRA level [6, 11]: 84%
- Reduction of the effect of HFD on the TBARS level [6, 11]: 63%
- Effect on GSH level (in words) ([6]; compound overall): overall ineffective
- Decrease in hydrogen peroxide level compared to disease group ([6]; highest concentration (40 mg/kg b.w.)): no significant effect
- Effect of HFD nullified, GR activity increased by (on an average) ([6]; relative to the effect of HFD): 99%
